Data set [1] has as its system PC-12. The data set can be described thus: Cytotoxicity against rat PC12 cells by MTT assay. It is filed as cell-based. On the technique in general: Formazan colour is commonly taken as a measure of viable cells.
Data set [2] concerns Neural stem cell. The data set can be described thus: Induction of neuronal differentiation in C57BL/6J mouse neural stem cells assessed as expression of Map2 at 1 uM administered every 2 days for 4 days by CF594/DAPI immunostaining based fluorescence microscopic microscopic analysis. It is filed as functional.
The subject of data set [3] is Neural stem cell. The experiment in a line: Induction of neuronal differentiation in C57BL/6J mouse neural stem cells assessed as Map2 mRNA expression at 1 uM measured after 4 days by RT-PCR analysis. It is filed as functional, cell-based.
Data set [4] concerns PC-12. The experiment in a line: Induction of neurite elongation in rat PC12 cells assessed as […] mRNA expression at 1 uM. It is filed as functional, cell-based.

Calls of active or inactive are those of the source. No cut-off for these calls is given here.

Take `CC1=C(C/C=C(\C)CC/C=C(\C)CC/C=C(\C)Cc2ccc(C)c(C)c2)C(=O)c2ccccc2C1=O`: the Activity result in data set [1] is listed as “Non-Toxic”.

For `CC1=C(C/C=C(\C)CC/C=C(\C)Cc2ccc(C)cc2C)C(=O)c2ccccc2C1=O`, in data set [1], the Activity result was “Non-Toxic”.

For `CC1=C(C/C=C(\C)CC/C=C(\C)CC/C=C(\C)Cc2cccc(C(C)(C)C)c2)C(=O)c2ccccc2C1=O`, the result in data set [2] and in data set [3] was Active. Moreover, the Activity entry in data set [1] is given as “Non-Toxic”.

Take `CC1=C(C/C=C(\C)CC/C=C(\C)Cc2ccc(C)c(C)c2)C(=O)c2ccccc2C1=O`: in data set [2], the result was inactive. The outcome in data set [3] was Active. For the same molecule, the Activity result in data set [1] was “Non-Toxic”.

Turning to `CC(C)=CCC/C(C)=C/CC/C(C)=C/CC/C(C)=C/CC1=C(C)C(=O)c2ccccc2C1=O` [MENATETRENONE], the result in data set [4] was inactive. In data set [3], the result was Active. Moreover, the Activity entry in data set [1] was “Non-Toxic”.

Turning to `CC1=C(C/C=C(\C)CC/C=C(\C)CC/C=C(\C)Cc2ccc(C)cc2C)C(=O)c2ccccc2C1=O`, the Activity entry in data set [1] is recorded as “Non-Toxic”.

`CC1=C(C/C=C(\C)CC/C=C(\C)CC/C=C(\C)Cc2cccc(C)c2C)C(=O)c2ccccc2C1=O`: the Activity result in data set [1] is given as “Non-Toxic”.

As for `CC1=C(C/C=C(\C)CC/C=C(\C)Cc2cccc(C(C)(C)C)c2)C(=O)c2ccccc2C1=O`, the outcome in data set [2] and in data set [3] was Active. For the same molecule, the Activity entry in data set [1] was “Non-Toxic”.

`CC1=C(C/C=C(\C)CC/C=C(\C)CC/C=C(\C)Cc2cc(C)cc(C)c2)C(=O)c2ccccc2C1=O`: the Activity entry in data set [1] was “Non-Toxic”.

In the case of `CC1=C(C/C=C(\C)CC/C=C(\C)CC/C=C(\C)Cc2c(C)cc(C)cc2C)C(=O)c2ccccc2C1=O`, the Activity entry in data set [1] is “Non-Toxic”.

With `CC1=C(C/C=C(\C)CC/C=C(\C)Cc2cccc(C)c2C)C(=O)c2ccccc2C1=O`, the result in data set [2] was inactive. The outcome in data set [3] was Active. For the same molecule, the Activity entry in data set [1] is listed as “Non-Toxic”.

In the case of `CC1=C(C/C=C(\C)CC/C=C(\C)Cc2cc(C)cc(C)c2)C(=O)c2ccccc2C1=O`, the Activity entry in data set [1] is listed as “Non-Toxic”.

`CC1=C(C/C=C(\C)CC/C=C(\C)Cc2c(C)cc(C)cc2C)C(=O)c2ccccc2C1=O`: the Activity entry in data set [1] is listed as “Non-Toxic”.

The values are drawn from ChEMBL document CHEMBL4043253, “Synthesis of novel vitamin K derivatives with alkylated phenyl groups introduced at the ω-terminal side chain and evaluation of their neural differentiation activities” (Bioorg Med Chem Lett, 2017).
